Laboratory results: publication PMC6154319, “Intestinal Transport Characteristics and Metabolism of C-Glucosyl Dihydrochalcone, Aspalathin” (Molecules : A Journal of Synthetic Chemistry and Natural …, 2017)

What was measured:
in vitro = conditions: human, Caco-2, Papp (cm/s) a-b × 10^−6
Procedure: Validation of the Caco-2 transport experiments required consideration of three parameters, i.e., firstly, to determine the cytotoxic concentrations of synthetic aspalathin, secondly, the concentration of aspalathin required to ensure HPLC detection in the basolateral compartment, and finally, to assess whether the transport of aspalathin is concentration dependent.
Cells were cultured at 37 °C and 5% CO2 in 95% humidified air in Eagle’s Minimum Essential Medium (EMEM) containing sodium […] pyruvate, supplemented with 2 mM L-glutamine, 1% non-essential amino acids and 10% heat inactivated FBS. Cell cultures were split when 70%–80% confluent, using trypsin/ethylenediaminetetraacetic acid (EDTA). The culture medium, pre-warmed to 37 °C, was refreshed every 2–3 days. Cells were seeded at 1 × 10^4 cells/cm^2 and a sub-cultivation ratio of 1:3 was routinely used. Cells were seeded with the addition of 1% penicillin/streptomycin mixture (10,000 units/mL potassium penicillin and 10,000 µg/mL streptomycin sulphate) at 4 × 10^4 cells/cm^2 onto 0.4 µm polycarbonate 6-well inserts with an insert area of 4.52 cm^2. Cells were used for transport experiments when TEER values across wells were >300 Ω, typically 21–23 days post confluence. Only passages 50–60 were used to prevent phenotypic drift.
The cell monolayers were equilibrated briefly with transport buffer, pH 6.0 (HBSS with 2-(N-morpholino) ethanesulphonic acid (MES)) on the apical side and pH 7.4 (HBSS with HEPES) on the basolateral side, to remove traces of the culture media. Following this, transport buffers were added for 30 min prior to the addition of treatment (inhibitors were added during this step when required, as well as during the subsequent treatment incubation step). After equilibration, the plates containing transport medium were incubated for 30 min at 37 °C at 5% CO2 in 95% humidified air and the TEER value of the monolayer determined. […] For basolateral-to-apical compartment studies, 2.4 mL of treatment at the same concentrations in HBSS (pH 7.4), was added to the basolateral compartment.
To assess whether aspalathin was co-transported with glucose, its transport (100 µM) at both high (20.5 mM) and low (5.5 mM) glucose concentrations, mimicking the intestinal lumen glucose concentrations pre- and post-meals, was monitored. This was followed by experiments performed in the presence and absence of SGLT1 (100 µM phloridzin), GLUT2 (100 µM phloretin) and efflux, PgP (100 µM verapamil) inhibitors.
Samples (1.2 mL) were withdrawn from the basolateral or the apical compartment to measure the concentration of aspalathin uptake and efflux, respectively at 0, 0.5, 1, 1.5, and 2 h under sink conditions (the sample aliquot replaced with equal volume of relevant transport buffer). Sample aliquots (350 µL) were frozen in liquid nitrogen after the addition of ascorbic acid (35 µL of 10% solution) and stored at −65 °C until HPLC analysis. Results were corrected for dilution and expressed as cumulative transport (% of initial dose) as a function of time. Papp (cm/s) for bi-directional transport studies was calculated as previously described. Transport of other major flavonoids in the matrices, i.e., nothofagin, the 3-deoxy analogue of aspalathin and its flavone derivatives, orientin and isoorientin, were also determined.
Lucifer yellow (final concentration 0.1 mM) was used as a membrane integrity marker and co-incubated with the compounds and extracts.
HPLC-DAD analysis of samples from the apical and basolateral compartments was performed in duplicate on an Agilent 1200 system as previously described. Basolateral and apical samples taken after 2 h with pure aspalathin were also analysed using LC-MS (parameters described in [42]) to determine whether aspalathin metabolites were formed in the Caco-2 model.
All experiments were performed in triplicate and the data expressed as mean ± SD, unless otherwise indicated.

[1] = Acute mouse study, metabolite identification in blood and urine by LC-MS/MS; format: in vivo; conditions: oral 50 mg/kg aspalathin, urine over 8 h, tentative identification by LC-MS/MS
Procedure: An acute mouse study was performed under ethical approval from the Ethics Committee for Research on Animals (ECRA) of the South African Medical Research Council (Ref:07/13). Three 8-week old male C57.BKS mice, obtained from the Primate Unit of the South African Medical Research Council (Tygerberg, South Africa), were housed individually in polycarbonate cages with wired lids and kept in a controlled environment of 23–24 °C, 50% humidity, and a 12 h light/dark cycle. Prior to the study, urine was collected from the fasting mice overnight in a metabolic cage. Baseline fasted blood was collected via tail snip into a heparin tube, snap frozen in liquid nitrogen, and stored at −80 °C. Each mouse received a single dose of synthetic aspalathin (50 mg/kg body weight) dissolved in phosphate-buffered saline (PBS) (5 mg/mL) via orogastric gavage. Blood samples were collected and handled as described for fasting at time 0 (pre-gavage), and 1, 2, 4, 6, and 8 h post-gavage. All the samples were collected into the same heparin tube and kept on ice during the experiment. Urine was collected over the 8-h post-gavage monitoring period and the samples were stored at −80 °C until analysis.
(§1) The frozen whole blood samples, as well as the samples incubated with microsomes and controls, were thawed, extracted by protein precipitation using 0.1% formic acid (FA) in acetonitrile, centrifuged and filtered through 0.22 µm polyvinylidene difluoride (PVDF) filters (Merck Millipore, Frankfurter Straße, Darmstadt, Germany). Frozen whole urine samples were thawed and diluted 5 times in 0.1% aqueous FA. Samples were analysed by LC-MS/MS on an Agilent 1200 Rapid Resolution HPLC system (600 bar, Agilent Technologies) coupled to a 4000 QTRAP® (AB Sciex, Framingham, MA, USA) equipped with a Turbo V™ […]. Filtered samples (10 μL), stored on a sample tray maintained at 8 °C, were injected on a Gemini C6-Phenyl column (150 × 2.0 mm, 3 µm particles) (Phenomenex, Santa Clara, CA, USA) at 40 °C. […]

mouse liver microsomes = assay: In vitro incubation of aspalathin in mouse liver microsomes and phosphate buffer; format: in vitro ADME
Procedure: Synthetic aspalathin (10 µM) was incubated at 37 °C in a solution containing 1 mg/mL microsomes (male Mouse BALB/c, Xenotech, Kansas city, KS, USA), magnesium chloride (5 mM) and nicotinamide adenine dinucleotide phosphate (NADPH) (1 mM) in phosphate buffer (100 mM, pH 7.4), for 1 h while shaking. A control containing all the sample constituents (not incubated), another containing no NADPH, and another containing only the compound in phosphate buffer were also included and handled similarly to the test sample.
as §1

Molecule | Papp A→B at 2 h (in vitro) | metabolite present in mouse urine (relative concentrations) [1] | product identified after incubation of aspalathin in mouse liver microsomes (mouse liver microsomes; aspalathin 10 µM, 1 mg/mL microsomes, NADPH, 37 °C, 1 h) | product identified after incubation of aspalathin in phosphate buffer (mouse liver microsomes; phosphate buffer pH 7.4)
O=c1cc(-c2ccc(O)c(O)c2)oc2cc(O)c([C@@H]3O[C@H](CO)[C@@H](O)[C@H](O)[C@H]3O)c(O)c12 [Isoorientin] | 1.69 ± 0.2 ×10⁻⁶ cm/s | – | – | –
O=c1cc(-c2ccc(O)c(O)c2)oc2c([C@@H]3O[C@H](CO)[C@@H](O)[C@H](O)[C@H]3O)c(O)cc(O)c12 [Orientin] | 1.92 ± 0.2 ×10⁻⁶ cm/s | – | – | –
Eriodictyol-C-glucoside [M1] | – | identified | identified | identified
